According to patent publication US20070179060A1, “6-(Poly-substituted aryl)-4-aminopicolinates and their use as herbicides” (priority 2006, published 2007):

Assays:
[1] = test system: Hordeum vulgare (winter barley); assay: Postemergence herbicidal activity of mixtures in cereal crops; type: in vivo; settings: after 3 weeks
Protocol: (§1) Seeds of the desired test plant species were planted and reared as described in “Evaluation of Postemergence Herbicidal Safening in Cereal Crops” (section 37).
(§2) Treatments consisted of compound (as listed in Tables 6 and 7), fluroxypyr methylheptyl ester (MHE), and clopyralid monoethanolamine (MEA) salt alone and in combination. Weighed amounts were placed in 25 mL glass vials and dissolved in a volume of 97:3 v/v acetone/DMSO to obtain 4.5 mg ai/mL stock solutions. […] The concentrated stock solutions were diluted to 1.5 mg ai/mL with the addition of 2 volumes of an aqueous mixture containing acetone, water, isopropyl alcohol, DMSO, Agri-dex crop oil concentrate, and Triton® X-77 surfactant in a 64.7:26.0:6.7:2.0:0.7:0.01 v/v ratio. A dilution solution was prepared by mixing 1 volume of 97:3 v/v acetone/DMSO and 2 volumes of an aqueous mixture containing acetone, water, isopropyl alcohol, DMSO, Agri-dex crop oil concentrate, and Triton® X-77 surfactant in a 64.7:26.0:6.7:2.0:0.7:0.01 v/v ratio. Compound requirements are based upon a 12 mL application volume at a rate of 187 L/ha. Spray solutions of fluroxypyr MHE, clopyralid MEA, and experimental compound mixtures were prepared by adding the stock solutions to the appropriate amount of dilution solution to form 12 mL spray solution with active ingredients in two- and three-way combinations. Formulated compounds were applied to the plant material with an overhead Mandel track sprayer equipped with a 8002E nozzles calibrated to deliver 187 L/ha over an application area of 0.503 square meters at a spray height of 18 inches (43 cm) above average plant canope. Control plants were sprayed in the same manner with the solvent blank.
(§3) The treated plants and control plants were placed in a greenhouse as described above and watered by sub-irrigation to prevent wash-off of the test compounds. After 3 weeks the condition of the test plants as compared with that of the control plants was determined visually and scored on a scale of 0 to 100 percent where 0 corresponds to no injury and 100 corresponds to complete kill.
(§4) Colby's equation was used to determine the herbicidal effects expected from the mixtures (Colby, S. R. 1967. Calculation of the synergistic and antagonistic response of herbicide combinations. Weeds 15:20-22.).
(§5) The following equation was used to calculate the expected activity of mixtures containing two active ingredients, A and B: Expected=A+B−(A×B/100) • A=observed efficacy of active ingredient A at the same concentration as used in the mixture. • B=observed efficacy of active ingredient B at the same concentration as used in the mixture.
(§6) The following equation was used to calculate the expected activity of mixtures containing three active ingredients, A, B, and C: Expected=A+B+C−(A×B+B×C+A×C)/100+(A×B×C)/10000 • A=observed efficacy of active ingredient A at the same concentration as used in the mixture. • B=observed efficacy of active ingredient B at the same concentration as used in the mixture. • C=observed efficacy of active ingredient C at the same concentration as used in the mixture.

[2] = test system: Triticum aestivum (spring wheat); assay: as above; type: in vivo; settings: after 3 weeks
Protocol: as §1, §2, §3, §4, §5, §6

Matricaria chamomilla = assay: as above; type: in vivo; settings: after 3 weeks
Protocol: as §1, §2, §3, §4, §5, §6

[3] = test system: redroot pigweed (Amaranthus retroflexus); assay: Postemergence herbicidal activity; type: in vivo; settings: post-emergent, 140 g ai/ha, after 14 days; for pest or weed control at 140 g/ha: Amaranthus retroflexus, post-emergence, 336 h, read-out: % Control AMARE
Method in brief: (§7)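 Plants grown 7-21 days in greenhouse (about 15 h photoperiod, 23-29° C day, 22-28° C night) to first or second true leaf stage. Compounds in acetone/water/isopropanol/DMSO carrier with crop oil concentrate and Triton X-155 sprayed overhead at 187 L/ha; controls received solvent blank. Plants sub-irrigated afterwards; dose responses analysed by probit analysis.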

[4] = test system: velvetleaf (Abutilon theophrasti); assay: Postemergence herbicidal activity; type: in vivo; settings: post-emergent, 140 g ai/ha, after 14 days; for pest or weed control at 140 g/ha: Abutilon theophrasti, post-emergence, 336 h, read-out: % Control ABUTH
Method in brief: as §7

[5] = test system: lambsquarter (Chenopodium album); assay: Postemergence herbicidal activity; type: in vivo; settings: post-emergent, 140 g ai/ha, after 14 days; for pest or weed control at 140 g/ha: Chenopodium album, post-emergence, 336 h, read-out: % Control CHEAL
Method in brief: as §7

[6] = test system: redroot pigweed (Amaranthus retroflexus); assay: Preemergence herbicidal activity; type: in vivo; settings: Amaranthus retroflexus, pre-emergence, 480 h; pre-emergent, 140 g ai/ha, after 20-22 days; read-out: % Control AMARE
Method in brief: (§8)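 Seeds sown in 70:30 loam (pH about 8.1, about 1.5% organic matter) and sand mix, then sprayed preemergence at 187 L/ha with a track sprayer; controls received solvent blank. Pots kept in greenhouse, about 15 h photoperiod, about 23-29° C. day and 22-28° C. night, top-irrigated.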

[7] = test system: velvetleaf (Abutilon theophrasti); assay: Preemergence herbicidal activity; type: in vivo; settings: Abutilon theophrasti, pre-emergence, 480 h; pre-emergent, 140 g ai/ha, after 20-22 days; read-out: % Control ABUTH
Method in brief: as §8

[8] = test system: lambsquarter (Chenopodium album); assay: Preemergence herbicidal activity; type: in vivo; settings: Chenopodium album, pre-emergence, 480 h; pre-emergent, 140 g ai/ha, after 20-22 days; read-out: % Control CHEAL
Method in brief: as §8

Cyperus difformis = assay: Herbicidal activity in transplanted paddy rice; type: in vivo; settings: Cyperus difformis, 504 h, paddy water application, after 3 weeks, read-out: % Control CYPDI
Method in brief: (§9)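 Rice seedlings transplanted at second to third leaf stage and weeds from seed were grown in flooded mud pots in a greenhouse (~29/26 °C, 14 h photoperiod). At second or third true leaf stage, acetone stock solutions were injected into the paddy water at the high rate and ½× to 1/16× dilutions. Solvent-blank controls.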

Monochoria vaginalis = assay: Herbicidal activity in transplanted paddy rice; type: in vivo; settings: Pontederia vaginalis, 504 h, paddy water application, after 3 weeks, read-out: % Control MOOVA
Method in brief: as §9

[9] = test system: rice (Orysa sativa var. Japonica); assay: Herbicidal activity in transplanted paddy rice; type: in vivo; settings: Oryza sativa, 504 h, transplant rice (crop), paddy water application, after 3 weeks
Method in brief: as §9

Echinochloa crus-galli = assay: Herbicidal activity in transplanted paddy rice; type: in vivo; settings: Echinochloa crus-galli, 504 h, paddy water application, after 3 weeks, read-out: % Control ECHCG
Method in brief: as §9

Scirpus juncoides = assay: Herbicidal activity in transplanted paddy rice; type: in vivo; settings: Schoenoplectiella juncoides, 504 h, paddy water application, after 3 weeks, read-out: % Control SCPJU
Method in brief: as §9

Papaver rhoeas = assay: Postemergence herbicidal activity in cereal crops; type: in vivo; settings: post-emergent, 17.5 g ai/ha, after 20-22 days
Method in brief: (§10)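 Greenhouse plants at the second or third true leaf stage are sprayed postemergence by track sprayer delivering 187 L/ha. Spray solution is an acetone/water/isopropanol/DMSO mixture with crop oil concentrate and Triton X-77. Treated plants are kept at about 18 °C day/17 °C night under a ~14 h photoperiod with sub-irrigation; blank-sprayed plants serve as controls.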

[10] = test system: wheat (Triticum aestivum); assay: Postemergence herbicidal activity in cereal crops; type: in vivo; settings: crop, post-emergent, 17.5 g ai/ha, after 20-22 days
Method in brief: as §10

Galium aparine = assay: Postemergence herbicidal activity in cereal crops; type: in vivo; settings: post-emergent, 17.5 g ai/ha, after 20-22 days
Method in brief: as §10

barley (Hordeum vulare) = assay: Postemergence herbicidal activity in cereal crops; type: in vivo; settings: crop, post-emergent, 17.5 g ai/ha, after 20-22 days
Method in brief: as §10

Lamium purpureum = assay: Postemergence herbicidal activity in cereal crops; type: in vivo; settings: post-emergent, 17.5 g ai/ha, after 20-22 days
Method in brief: as §10

Veronica persica = assay: Postemergence herbicidal activity in cereal crops; type: in vivo; settings: post-emergent, 17.5 g ai/ha, after 20-22 days
Method in brief: as §10

[11] = Table 6, applied alone, 35 g ai/ha
[12] = Table 7, applied alone, 35 g ai/ha
[13] = Table 7, applied alone, 70 g ai/ha

Compound	% Control HORVW Ob [1, 11] [%]	% Control HORVW Ob [1, 12] [%]	% Control HORVW Ob [1, 13] [%]	% Control TRZAS Ob [2, 11] [%]	% Control TRZAS Ob [2, 12] [%]	% Control TRZAS Ob [2, 13] [%]	% Control MATCH Ob (Matricaria chamomilla; [11]) [%]	% Control MATCH Ob (Matricaria chamomilla; [12]) [%]	% Control MATCH Ob (Matricaria chamomilla; [13]) [%]	pest or weed control at 140 g/ha [3] [%]	pest or weed control at 140 g/ha [4] [%]	pest or weed control at 140 g/ha [5] [%]	melting point [°C]	other results
NCCO.O=C(O)c1nc(Cl)ccc1Cl [Clopyralid MEA, clopyralid monoethanolamine (MEA) salt]	0	0	0	0	0	0	20	5	40	–	–	–	–	–
COC(=O)c1nc(-c2ccc(F)c(OC)c2Cl)cc(N)c1Cl [Compound 74, 4-Amino-3-chloro-6-(2-chloro-4-fluoro-3-methoxyphenyl)pyridine-2-carboxylic acid, methyl ester]	0	–	–	25	–	–	10	–	–	90	100	100	145 to 146	pest or weed control at 140 g/ha [6]: 95%; pest or weed control at 140 g/ha [7]: 100%; pest or weed control at 140 g/ha [8]: 95%
CCCCOCCOC(=O)c1nc(-c2ccc(Cl)c(OC)c2F)cc(N)c1Cl [Compound 92, 4-Amino-3-chloro-6-(4-chloro-2-fluoro-3-methoxyphenyl)pyridine-2-carboxylic acid, 2-butoxy-ethyl ester]	–	–	–	–	–	–	–	–	–	–	–	–	72 to 74	pest or weed control at 17.5 g/ha (Cyperus difformis; 17.5 g ai/ha): 99%; pest or weed control at 17.5 g/ha (Monochoria vaginalis; 17.5 g ai/ha): 100%; pest or weed control at 17.5 g/ha ([9]; 17.5 g ai/ha): 0%; pest or weed control at 17.5 g/ha (Echinochloa crus-galli; 17.5 g ai/ha): 40%; pest or weed control at 17.5 g/ha (Scirpus juncoides; 17.5 g ai/ha): 90%; % Control AMARE [3]: 100%; % Control ABUTH [4]: 100%; % Control CHEAL [5]: 100%; % Control PAPRH (Papaver rhoeas): 95%; % Control TRZAS [10]: 0%; % Control GALAP (Galium aparine): 99%; % Control HORVS (barley (Hordeum vulare)): 0%; % Control LAMPU (Lamium purpureum): 100%; % Control VERPE (Veronica persica): 30%
COc1c(Br)ccc(-c2cc(N)c(Cl)c(C(=O)O)n2)c1F [Compound 120, 4-Amino-6-(4-bromo-2-fluoro-3-methoxyphenyl)-3-chloropyridine-2-carboxylic acid]	–	–	–	–	–	–	–	–	–	90	100	95	176 to 177	pest or weed control at 35 g/ha (Cyperus difformis; 35 g ai/ha): 100%; pest or weed control at 35 g/ha (Monochoria vaginalis; 35 g ai/ha): 100%; pest or weed control at 35 g/ha ([9]; 35 g ai/ha): 0%; pest or weed control at 35 g/ha (Echinochloa crus-galli; 35 g ai/ha): 40%; pest or weed control at 35 g/ha (Scirpus juncoides; 35 g ai/ha): 95%; pest or weed control at 17.5 g/ha (Papaver rhoeas; Papaver rhoeas, post-emergence, 480 h, read-out: % Control PAPRH): 95%; plant injury at 17.5 g/ha ([10]; Triticum aestivum, post-emergence, 480 h, read-out: % Control TRZAS): 0%; pest or weed control at 17.5 g/ha (Galium aparine; Galium aparine, post-emergence, 480 h, read-out: % Control GALAP): 80%; pest or weed control at 17.5 g/ha (barley (Hordeum vulare); Hordeum, post-emergence, 480 h, read-out: % Control HORVS): 0%; pest or weed control at 17.5 g/ha (Lamium purpureum; Lamium purpureum, post-emergence, 480 h, read-out: % Control LAMPU): 95%; pest or weed control at 17.5 g/ha (Veronica persica; Veronica persica, post-emergence, 480 h, read-out: % Control VERPE): 50%
CCCCCCC(C)OC(=O)COc1nc(F)c(Cl)c(N)c1Cl (stereo not shown) [Fluroxypyr MHE, fluroxypyr methylheptyl ester]	0	0	0	0	0	0	0	0	0	–	–	–	–	–
